Legend:
[1] = target: T1, F508del-CFTR (Homo sapiens, UniProt P13569, DEL508-508); experiment: HS-YFP functional assay in CFBE41o- cells stably overexpressing F508del-CFTR; type: cell-based; settings: 24 h treatment; for EC50 / HS-YFP assay in CFBE41o- cells EC50: 3 nM-10 µM range; for HS-YFP assay in CFBE41o- cells Emax: values normalized to DMSO-incubated cells
T1 construct: expressed in transfected cells
Description: These analogues were tested in the functional assay on the human bronchial epithelia-derived cell line, CFBE41o-, which stably overexpresses F508del-CFTR and the halide-sensitive yellow fluorescent protein (HS-YFP).[31] […]
HS-YFP-based assay for CFTR activity
Twenty-four hours after seeding on 96-well plates, CFBE41o- cells stably over-expressing F508del-CFTR and the HS-YFP were treated with test compounds at different concentrations in the 3 nM-10 µM range.1 Cells treated with vehicle alone (DMSO) and with ARN23765, respectively, served as negative and positive controls. The following day, cells were washed with PBS containing (in mM) 137 NaCl, 2.7 KCl, 8.1 Na2HPO4, 1.5 KH2PO4, 1.0 CaCl2, and 0.5 MgCl2. Cells were then incubated for 25 min with […] of PBS plus forskolin (20 µM) and VX-770 (1 µM) to maximally stimulate F508del-CFTR. Cells were then transferred to a microplate reader (FluoStar Galaxy; BMG Labtech, Offenburg, Germany) for CFTR activity determination. The plate reader was equipped with high-quality excitation (HQ500/20X: 500 ± 10 nm) and emission (HQ535/30M: 535 ± 15 nm) filters for YFP (Chroma Technology). Each assay comprised a continuous 14 s fluorescence reading, 2 s before and 12 s after injection of […] of an iodide-containing solution (PBS with Cl- replaced by I-; final I- concentration […]). Data were normalized to the initial background-subtracted fluorescence. To determine I- influx rate, the final 11 s of the data for each well were fitted with an exponential function to extrapolate initial slope (dF/dt). Reproducibility of results was confirmed by performing three independent experiments. […]

[2] = target: T2, wt-CFTR (Homo sapiens, UniProt P13569); experiment: Live-cell photoaffinity labeling, streptavidin pull-down and CFTR Western blot; type: binding; settings: wt-CFTR CFBE41o- cells, probe 1 μM; for CFTR in streptavidin pull-down (WB) after PAL: 2 h, UV 365 nm
T2 construct: expressed in transfected cells
T2 sequence (P13569 whole entry): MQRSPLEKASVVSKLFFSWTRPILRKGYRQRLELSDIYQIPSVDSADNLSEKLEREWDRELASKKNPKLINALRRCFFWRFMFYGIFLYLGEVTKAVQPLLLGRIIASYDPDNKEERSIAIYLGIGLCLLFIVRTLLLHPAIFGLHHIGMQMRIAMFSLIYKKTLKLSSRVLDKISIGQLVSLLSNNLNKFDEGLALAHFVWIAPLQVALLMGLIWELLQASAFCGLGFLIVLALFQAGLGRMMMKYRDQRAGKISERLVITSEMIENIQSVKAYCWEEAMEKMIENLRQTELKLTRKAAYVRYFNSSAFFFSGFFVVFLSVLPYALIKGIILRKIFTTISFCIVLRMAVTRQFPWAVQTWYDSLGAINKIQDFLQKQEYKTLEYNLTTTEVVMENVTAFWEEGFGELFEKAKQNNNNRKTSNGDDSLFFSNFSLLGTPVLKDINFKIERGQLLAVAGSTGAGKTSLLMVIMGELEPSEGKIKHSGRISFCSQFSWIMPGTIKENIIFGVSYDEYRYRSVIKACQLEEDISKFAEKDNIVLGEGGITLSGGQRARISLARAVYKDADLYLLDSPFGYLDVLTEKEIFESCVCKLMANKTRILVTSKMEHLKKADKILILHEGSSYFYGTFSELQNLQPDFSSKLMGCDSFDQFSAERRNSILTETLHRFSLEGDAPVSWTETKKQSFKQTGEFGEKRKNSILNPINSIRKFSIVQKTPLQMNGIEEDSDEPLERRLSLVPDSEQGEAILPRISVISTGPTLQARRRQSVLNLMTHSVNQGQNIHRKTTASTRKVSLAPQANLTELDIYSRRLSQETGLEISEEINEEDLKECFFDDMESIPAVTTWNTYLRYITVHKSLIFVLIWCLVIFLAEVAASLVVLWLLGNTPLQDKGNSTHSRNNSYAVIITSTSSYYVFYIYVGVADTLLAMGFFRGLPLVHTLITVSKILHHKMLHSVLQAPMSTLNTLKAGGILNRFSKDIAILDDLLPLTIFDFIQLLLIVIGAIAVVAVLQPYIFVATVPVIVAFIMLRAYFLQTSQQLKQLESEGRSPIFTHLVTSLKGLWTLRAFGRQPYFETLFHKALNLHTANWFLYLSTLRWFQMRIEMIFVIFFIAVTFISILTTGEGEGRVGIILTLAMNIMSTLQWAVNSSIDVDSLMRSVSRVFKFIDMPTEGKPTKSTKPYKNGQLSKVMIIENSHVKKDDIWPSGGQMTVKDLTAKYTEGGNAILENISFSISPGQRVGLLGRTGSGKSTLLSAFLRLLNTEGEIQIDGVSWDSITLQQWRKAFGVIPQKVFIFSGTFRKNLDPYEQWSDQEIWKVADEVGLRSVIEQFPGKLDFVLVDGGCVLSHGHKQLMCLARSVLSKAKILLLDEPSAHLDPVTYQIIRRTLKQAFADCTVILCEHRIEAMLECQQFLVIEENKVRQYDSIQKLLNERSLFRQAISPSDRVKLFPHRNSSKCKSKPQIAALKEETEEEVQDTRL
Description: (§1) Wt-CFTR or F508del-CFTR CFBE41o- cells were plated at 2–2.5 × 10^6 cells/plate in 6 cm diameter dishes. The day after, sodium butyrate (5–2.5 mM) was added for 24 h; next, the medium was exchanged with fresh one supplemented with DMSO (0.25%) (276855, Sigma-Aldrich) or probe (1 μM). For competition experiments, a 25-fold excess of ARN23765 (25 μM) was added 30 min before probe’s addition. For the analysis of “corrected” F508del-CFTR, F508del-CFTR CFBE41o- cells were kept at 27 °C for 24 h before adding the probes. Probes were incubated with cells for 2 h, then the medium was removed, and plates were washed twice with phosphate buffer saline (PBS). Cells were placed on ice and irradiated for 5 min at a wavelength of 365 nm using a 100-W UV-lamp (95–0127–02 model B100-AP, Analytik Jena). Cells were harvested with trypsin (T4299, Sigma-Aldrich), washed with PBS (D8537, Sigma-Aldrich), and pellets were stored at −80 °C until used, centrifuged at 300 × g and washed twice with PBS (D8537, Sigma-Aldrich). Pellets from in-cell photoaffinity labeling with alkyne-probes (PAP_1 and PAP_2) were lysed in PBS plus protease inhibitor cocktail (78429, Thermo Scientific) by sonication. The suspension was centrifuged at 800 × g for 20 min at 4 °C to discard nuclei and cell debris. The total extracted proteins were quantified with the bicinchoninic acid (BCA) protein assay (23225, Thermo Scientific) and subjected to CuAAC before proceeding with pull-down. Pellets from in-cell photoaffinity labeling with desthio-biotinylated (DS-biot) probes (PAP_1 DS-biot, PAP_2 DS-biot, PAP_N1 DS-biot, PAP_N2 DS-biot) were lysed with a modified RIPA buffer [50 mM tris-HCl pH 8, 150 mM NaCl, 0.5% Triton-X100, 0.2% SDS, 1 mM ethylenediaminetetraacetic acid (EDTA)] supplemented with protease inhibitor cocktail and centrifuged at 10.000× g for 10 min. The protein content in the supernatant was quantified by BCA protein assay. Protein lysate (200 μg) was diluted to 800 μL and the Triton-X100 percentage was reduced to 0.2% before proceeding to pull-down.
Copper-catalyzed azide–alkyne cycloaddition (CuAAC) was performed according to a previously described protocol.[62] Briefly, to the protein preparation (250 μL at 1 mg/mL protein concentration) the following reagents were added at the indicated final concentrations: 100 μM 5/6-TAMRA-azide-desthiobiotin (CLK-1110–5, Jena Bioscience), 1.0 mM tris-(2-carbossietil)phosphine (TCEP, C4706, Sigma-Aldrich), 100 μM tris-[(1-benzyl-1H-1,2,3-triazol-4-yl)methyl]amine (TBTA, 678937, Sigma-Aldrich), 1.0 mM CuSO4.5H2O (Sigma), and 0.8% sodium dodecyl sulfate (SDS). TBTA was first dissolved in DMSO at 83.5 mM and then diluted with four volumes of tert-butanol. The reaction was mixed by vortexing and incubated for 1 h at 25 °C. After the reaction time, proteins were precipitated with 5 volumes of cold acetone overnight at −20 °C. Samples were centrifuged for 20 min at 20.000× g, and the pellets were washed with methanol, air-dried, and finally resuspended with 600 μL of 1% SDS. SDS concentration was then diluted to 0.2% with PBS before proceeding to pull-down.
(§2) High capacity streptavidin agarose (20359, Thermo Scientific) (25 μL) was added to PAP-labeled cell extracts for 1 h at room temperature under gentle rotation. The streptavidin beads were collected by centrifugation and washed four times with lysis buffer. Resin-bound proteins were eluted with 45 μL of 5 mM biotin (B4501, Sigma-Aldrich) for 30 min at room temperature and analyzed with Western blot for CFTR expression. Input samples (4 and 8 μg for wt-CFTR and F508del-CFTR CFBE41o-, respectively) were collected immediately before incubation with streptavidin resin. Input and pulled-down samples were analyzed with WB as described in the supplementary methods.

[3] = target: T1, F508del-CFTR; experiment: as above; type: binding; settings: for CFTR in streptavidin pull-down (WB) after PAL: F508del-CFTR CFBE41o- cells, probe 1 μM, 2 h, UV 365 nm
Description: as §1, §2

[4] = system: CFTR; experiment: Live-cell photoaffinity labeling in CFTR–/– CFBE41o- cells (control); type: binding, human; settings: probe 1 μM, 2 h

T1 sequence (P13569 with tags, fused parts or gaps DEL508-508): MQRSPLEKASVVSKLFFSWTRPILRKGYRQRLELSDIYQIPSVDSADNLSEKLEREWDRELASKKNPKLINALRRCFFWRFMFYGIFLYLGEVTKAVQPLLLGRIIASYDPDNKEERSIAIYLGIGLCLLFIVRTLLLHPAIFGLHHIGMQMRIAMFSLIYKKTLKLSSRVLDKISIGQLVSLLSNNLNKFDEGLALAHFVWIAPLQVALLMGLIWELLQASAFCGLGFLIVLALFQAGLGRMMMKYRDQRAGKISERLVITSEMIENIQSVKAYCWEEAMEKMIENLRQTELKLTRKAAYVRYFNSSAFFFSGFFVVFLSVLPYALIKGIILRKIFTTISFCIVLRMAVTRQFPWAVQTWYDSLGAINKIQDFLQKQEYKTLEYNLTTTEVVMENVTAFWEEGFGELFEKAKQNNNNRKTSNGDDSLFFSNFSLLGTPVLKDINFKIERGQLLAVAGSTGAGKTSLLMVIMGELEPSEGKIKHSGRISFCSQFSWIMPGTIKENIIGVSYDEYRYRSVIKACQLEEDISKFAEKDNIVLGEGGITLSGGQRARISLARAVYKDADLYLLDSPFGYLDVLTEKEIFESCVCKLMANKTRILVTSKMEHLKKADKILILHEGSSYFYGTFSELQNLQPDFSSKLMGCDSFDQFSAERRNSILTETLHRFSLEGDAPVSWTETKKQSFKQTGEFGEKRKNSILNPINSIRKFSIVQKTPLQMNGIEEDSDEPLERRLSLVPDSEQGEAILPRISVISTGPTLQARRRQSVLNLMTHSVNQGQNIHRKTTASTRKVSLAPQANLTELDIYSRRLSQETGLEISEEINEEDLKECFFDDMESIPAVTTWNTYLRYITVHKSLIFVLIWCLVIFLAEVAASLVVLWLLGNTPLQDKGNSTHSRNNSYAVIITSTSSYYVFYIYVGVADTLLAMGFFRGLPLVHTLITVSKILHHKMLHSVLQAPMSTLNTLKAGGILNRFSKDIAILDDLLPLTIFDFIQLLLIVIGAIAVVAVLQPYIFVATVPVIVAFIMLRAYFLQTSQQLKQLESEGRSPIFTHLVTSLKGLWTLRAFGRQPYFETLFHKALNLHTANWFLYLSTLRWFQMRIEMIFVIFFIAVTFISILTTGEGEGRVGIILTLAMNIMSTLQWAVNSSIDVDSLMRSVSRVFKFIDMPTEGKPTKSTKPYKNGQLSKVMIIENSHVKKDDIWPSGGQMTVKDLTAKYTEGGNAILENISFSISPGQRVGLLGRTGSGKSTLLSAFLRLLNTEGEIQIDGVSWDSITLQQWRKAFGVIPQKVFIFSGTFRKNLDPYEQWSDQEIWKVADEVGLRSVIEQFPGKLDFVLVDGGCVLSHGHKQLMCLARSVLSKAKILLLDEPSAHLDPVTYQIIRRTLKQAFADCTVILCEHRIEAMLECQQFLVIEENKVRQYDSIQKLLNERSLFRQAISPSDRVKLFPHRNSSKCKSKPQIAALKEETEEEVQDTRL

SMILES	EC50 [1]	HS-YFP assay in CFBE41o- cells Emax [1]	CFTR in streptavidin pull-down (WB) after PAL [2]	CFTR in streptavidin pull-down (WB) after PAL [3]	other results
C#Cc1ccc(O[C@H]2CCCc3c(C(F)(F)F)nn(-c4cccc(C(=O)N(C)c5ccc6c(c5)OC(F)(F)O6)c4)c32)cc1 [Compound 1, (S)-N-(2,2-Difluorobenzo[d][1,3]dioxol-5-yl)-3-(7-(4-ethynylphenoxy)-3-(trifluoromethyl)-4,5,6,7-tetrahydro-1H-indazol-1-yl)-N-methylbenzamide]	3.3 nM	3			
CN(C(=O)c1cccc(-n2nc(C(F)(F)F)c3c2[C@@H](Oc2ccc(C(=O)O)cc2)CCC3)c1)c1ccc(C2(C(F)(F)F)N=N2)cc1 [Compound 2, (S)-4-((1-(3-(Methyl(4-(3-(trifluoromethyl)-3H-diazirin-3-yl)phenyl)carbamoyl)phenyl)-3-(trifluoromethyl)-4,5,6,7-tetrahydro-1H-indazol-7-yl)oxy)benzoic Acid]	24 nM	1.2			Effect in CFTR rescuing (HS-YFP assay, Figure S2) ([1]; vs DMSO): no significant effect
C[C@H]1NC(=O)N[C@H]1CCCCCC(=O)NCCOCCOCCOCCn1cc(CCC2(CCNC(=O)c3ccc(O[C@H]4CCCc5c(C(F)(F)F)nn(-c6cccc(C(=O)N(C)c7ccc8c(c7)OC(F)(F)O8)c6)c54)cc3)N=N2)nn1 [PAP_1 DS-biot, N-(2,2-Difluorobenzo[d][1,3]dioxol-5-yl)-N-methyl-3-((S)-7-(4-((2-(3-(2-(1-(18-((4S,5R)-5-methyl-2-oxoimidazolidin-4-yl)-13-oxo-3,6,9-trioxa-12-azaoctadecyl)-1H-1,2,3-triazol-4-yl)ethyl)-3H-diazirin-3-yl)ethyl)carbamoyl)phenoxy)-3-(trifluoromethyl)-4,5,6,7-tetrahydro-1H-indazol-1-yl)benzamide]	122 nM	2.7	consistently captured	consistently captured	CFTR forms in streptavidin pull-down (WB) after PAL ([3]; F508del-CFTR CFBE41o- cells kept at 27 °C for 24 h (low-temperature rescue) before PAL): bound and pulled down both F508del-CFTR immature (band B) and mature (band C) protein; CFTR in streptavidin pull-down (WB) after PAL [4]: did not detect CFTR
C#CCCC1(CCNC(=O)c2ccc(O[C@H]3CCCc4c(C(F)(F)F)nn(-c5cccc(C(=O)N(C)c6ccc7c(c6)OC(F)(F)O7)c5)c43)cc2)N=N1 [PAP_1, (S)-3-(7-(4-((2-(3-(But-3-yn-1-yl)-3H-diazirin-3-yl)ethyl)carbamoyl)phenoxy)-3-(trifluoromethyl)-4,5,6,7-tetrahydro-1H-indazol-1-yl)-N-(2,2-difluorobenzo[d][1,3]dioxol-5-yl)-N-methylbenzamide]	< 3 nM	2.8			
C#Cc1ccc(O[C@H]2CCCc3c(C(F)(F)F)nn(-c4cccc(C(=O)N(C)c5ccc(C6(C(F)(F)F)N=N6)cc5)c4)c32)cc1 [PAP_2, (S)-3-(7-(4-Ethynylphenoxy)-3-(trifluoromethyl)-4,5,6,7-tetrahydro-1H-indazol-1-yl)-N-methyl-N-(4-(3-(trifluoromethyl)-3H-diazirin-3-yl)phenyl)benzamide]	385 nM	2.1			CFTR in pull-down (WB) after PAL with alkyne probe and CuAAC DS-biot tagging ([2]; UV irradiation, CuAAC): barely detect a band corresponding to CFTR
C[C@H]1NC(=O)N[C@H]1CCCCCC(=O)NCCOCCOCCOCCn1cc(CCC2(CCNC(=O)c3ccc(O[C@H]4CCCc5c(C(F)(F)F)nn(-c6cccc(C(=O)Nc7ccc8c(c7)OC(F)(F)O8)c6)c54)cc3)N=N2)nn1 [PAP_N1 DS-biot, N-(2,2-Difluorobenzo[d][1,3]dioxol-5-yl)-3-((S)-7-(4-((2-(3-(2-(1-(18-((4S,5R)-5-methyl-2-oxoimidazolidin-4-yl)-13-oxo-3,6,9-trioxa-12-azaoctadecyl)-1H-1,2,3-triazol-4-yl)ethyl)-3H-diazirin-3-yl)ethyl)carbamoyl)phenoxy)-3-(trifluoromethyl)-4,5,6,7-tetrahydro-1H-indazol-1-yl)benzamide]			not pulled down	not pulled down	HS-YFP assay in CFBE41o- cells EC50 [1]: devoid of activity
C[C@H]1NC(=O)N[C@H]1CCCCCC(=O)NCCOCCOCCOCCn1cc(-c2ccc(O[C@H]3CCCc4c(C(F)(F)F)nn(-c5cccc(C(=O)Nc6ccc(C7(C(F)(F)F)N=N7)cc6)c5)c43)cc2)nn1 [PAP_N2 DS-biot, 3-((S)-7-(4-(1-(18-((4S,5R)-5-Methyl-2-oxoimidazolidin-4-yl)-13-oxo-3,6,9-trioxa-12-azaoctadecyl)-1H-1,2,3-triazol-4-yl)phenoxy)-3-(trifluoromethyl)-4,5,6,7-tetrahydro-1H-indazol-1-yl)-N-(4-(3-(trifluoromethyl)-3H-diazirin-3-yl)phenyl)benzamide]			not pulled down	not pulled down	HS-YFP assay in CFBE41o- cells EC50 [1]: devoid of activity

— paper PMC11873939, “Target Identification with Live-Cell Photoaffinity Labeling and Mechanism of Action Elucidation of ARN23765, a Highly Potent CFTR Corrector” (Journal of Medicinal Chemistry, 2025)
